Data from patent US20110053860A1, “COX-2 function and wound healing” (priority 2001, published 2011).

Columns and labels:
[1] = tested on: rat closed femur fracture model; assay: Torsional mechanical testing of fractured femurs; format: in vivo, male Sprague-Dawley rats; details: for normalized shear stress / normalized peak torque / normalized torsional rigidity / normalized maximum shear stress: percentage of contralateral unfractured femur; for normalized shear stress: no drug 36; for normalized maximum shear stress: no drug 48; for effect on fracture healing at the dose and treatment regime used: daily gavage, indomethacin 1 mg/kg, celecoxib 4 mg/kg, rofecoxib 3 mg/kg; for Shear Modulus, mean / Peak Torque (Tmax), mean: fractured femur; for Peak Torque (Tmax), mean: not normalized; for Mal-Union (Stage III), frequency / Non-Union (Stage I/II), frequency / Union (Stage IV), frequency: mechanically tested fractured femurs at 8 weeks post-fracture
Protocol: (§1) A total of 253 male Sprague-Dawley rats (584.+−0.62 g) were fed a standard diet and kept caged separately in a constant temperature and humidity environment. All rats were 6-9 months old at the beginning of the experiment. Drugs were administered daily by gavage beginning two days prior to fracture. Animals were randomly selected for each treatment group. […] No drug (control) rats were not initially gavaged but later rats were gavaged with water and no difference was noted between the no drug rats that had been gavaged and those that had not. No statistically significant differences were found in animal weight changes during the experiments.
(§2) The rats were anesthetized by intraperitoneal injection of ketamine (40 mg/kg) and xylazine (5 mg/kg). Under aseptic conditions, a medial parapatellar incision (0.4-0.5 cm) was made in the right hindlimb and the patella was dislocated laterally. The medullary canal was entered through the intercondylar notch and reamed with an 18-gauge needle. A 1.1 mm stainless steel pin (Small Parts Inc., Miami Lakes, Fla.) was then inserted into the canal and secured in the proximal part of the greater trochanter by tamping. The distal portion of the pin was then cut flush with the femoral condyles and the patella dislocation was reduced. The soft tissue and skin were closed with 4-0 vicryl sutures. After closing, the diaphysis of the pinned femur was fractured by means of a three-point bending device as described by Bonnarens and Einhorn (Bonnarens and Einhorn 1984).
Animals within each treatment group were sacrificed at 4, 6, and 8 weeks post-fracture by CO2 asphyxiation. Animals with oblique, comminuted, or infected fractures were not used for mechanical testing. Both femora were removed and cleaned of all soft tissue leaving the fracture callus undisturbed and then immediately processed for mechanical testing. The samples were wrapped in saline soaked gauze to prevent dehydration between steps. Measurements of the femora were taken using digital calipers to determine femur length and external callus dimensions. The intramedullary pin was removed from the fractured femur and a 1 mm-diameter stainless steel pin (˜0.8 cm length) was inserted at the proximal and distal end perpendicular to the long axis of the bone to prevent slipping in the potting material. The intact femur was also pinned as described above. The femoral ends were potted in 1-inch hexnuts using a low melt temperature metal (Wood's metal, Alfa Aesar, Ward Mill, Mass.). Once potted, the gage length (L) of each femur was measured. Torsional testing was conducted using a servohydraulic testing machine (MTS, Eden, Praire, Minn.) with a 20 Nm reaction torque cell (Interface, Scottsdale, Ariz.). The testing was carried out to failure at a rate of 2°/sec and a data recording rate of 20 Hz. Both the fractured and intact femora were tested in internal rotation in proper anatomic orientation. The peak torque and angle at failure were calculated from the load-deformation curves. Internal fracture callus dimensions were measured after mechanical testing. From the callus dimensions, the polar moment of inertia (J) was calculated based upon a hollow ellipse model (Bell et al. 1941; Engesaeter et al. 1978). The equations used to derive torsional rigidity, shear stress, shear modulus, and J were as follows (Popov 1968): (1) Torsional Rigidity: (Tmax·L)/φ where Tmax is the peak torque value in Nmm, L is the gage length in mm, and φ is the angle at failure in radians. (2) Shear Stress: (Tmax·Rmax)/J where Rmax is the largest radial dimension of the fracture callus in mm (ao) and J is the polar moment of inertia. […]

[2] = tested on: rat closed femur fracture model; assay: Radiographic analysis of femur fracture healing in NSAID treated rats; format: in vivo, male Sprague-Dawley rats; details: for average radiograph score (union 1 point, mal-union 0.5 points, non-union 0 points): 8-week post-fracture radiographs, 7 blinded observers, control rats 0.71
Protocol: A total of 253 male Sprague-Dawley rats (584.+−0.62 g) were fed a standard diet and kept caged separately in a constant temperature and humidity environment. All rats were 6-9 months old at the beginning of the experiment. Drugs were administered daily by gavage beginning two days prior to fracture. Animals were randomly selected for each treatment group.
as §2
Radiographs were made post-fracture to confirm the position and quality of each fracture and at sacrifice to determine the degree of healing. In addition several rats were selected randomly to produce serial radiographs (at least 2 rats per treatment group). Radiographs were made of these rats weekly under anesthesia until the experimental endpoint (8 weeks). Radiographs of mice were also made under anesthesia. All radiographs were made using a 43805N Faxitron (Hewlett-Packard, McMinnville, Oreg.) and Kodak MinR-2000 mammography film.
Radiographs were made immediately following fracture production and then every week till the end point of the experiments (8 weeks post-fracture).
In addition to the serial radiographs made for certain rats, all animals in this study were examined radiographically immediately post-fracture and when euthanized. A random, blinded sample of the 8-week post-fracture radiographs were independently examined by 7 observers and scored as a union (1 point), mal-union (0.5 points), or non-union (0 points).

[3] = tested on: rat closed femur fracture model; assay: Histology of fracture callus; format: in vivo, male Sprague-Dawley rats; details: for histology of the healing femur fractures compared to untreated control rat: 2 weeks post-fracture; for cartilage in the fracture callus: 3 and 4 weeks post-fracture; for healing of fractured femurs by histology: 6 and 8 weeks post-fracture
Protocol: as §1, §2
Rats were sacrificed at 2, 3, 4, 6, and 8 weeks post-fracture by CO2 asphyxiation. Both femora were resected and the stainless steel pin was removed from the medullary canal. The harvested femora were fixed in 10% buffered formalin and embedded in polymethylmethacrylate following standard histological techniques for calcified tissue. The samples were sectioned sagitally through the fracture callus using an Isomet diamond saw (Buehler Ltd., Lake Bluff, Ill.), mounted on plexiglass slides, and polished to a thickness of 100 μ.m. The slides were then stained with van Gieson's picrofuchsin and Stevenel's blue in order to identify new bone growth and cartilage formation (Maniatopoulos et al. 1986). Mice femora were fixed, decalcified, paraffin embedded, sectioned, and stained with Masson's trichrome stain. The samples were viewed and photomicrographs were taken using an Olympus BH2-RFCA microscope or an Olympus SZ40 microscope.

[4] = male rats, single drug dose; cited from earlier work
[5] = humans, depending upon drug dose; cited from earlier work
[6] = tested on: rat closed femur fracture model; details: in vivo
Description: Experimental treatment group values were compared to the no drug values using a χ^2 analysis. Significant differences are noted with an asterisk (P<0.01).
Pin slippage is dislodgement of the intramedullary stainless steel rod used to stabilize the fracture and permit the rat to weight-bear on the fractured femur. Once fracture stability was lost, the rat was euthanized since the rat could no longer weight-bear on the femur and since the callus would be re-injured and thus alter healing. […] Animals with these complications were excluded.

COX-2 = COX-2 (Homo sapiens, UniProt P35354); details: cited from earlier work
[7] = 6 weeks post-fracture, no drug 89
[8] = 8 weeks post-fracture, no drug 88
[9] = 8 weeks post-fracture, no drug 101

COX-2, sequence (P35354 18-604): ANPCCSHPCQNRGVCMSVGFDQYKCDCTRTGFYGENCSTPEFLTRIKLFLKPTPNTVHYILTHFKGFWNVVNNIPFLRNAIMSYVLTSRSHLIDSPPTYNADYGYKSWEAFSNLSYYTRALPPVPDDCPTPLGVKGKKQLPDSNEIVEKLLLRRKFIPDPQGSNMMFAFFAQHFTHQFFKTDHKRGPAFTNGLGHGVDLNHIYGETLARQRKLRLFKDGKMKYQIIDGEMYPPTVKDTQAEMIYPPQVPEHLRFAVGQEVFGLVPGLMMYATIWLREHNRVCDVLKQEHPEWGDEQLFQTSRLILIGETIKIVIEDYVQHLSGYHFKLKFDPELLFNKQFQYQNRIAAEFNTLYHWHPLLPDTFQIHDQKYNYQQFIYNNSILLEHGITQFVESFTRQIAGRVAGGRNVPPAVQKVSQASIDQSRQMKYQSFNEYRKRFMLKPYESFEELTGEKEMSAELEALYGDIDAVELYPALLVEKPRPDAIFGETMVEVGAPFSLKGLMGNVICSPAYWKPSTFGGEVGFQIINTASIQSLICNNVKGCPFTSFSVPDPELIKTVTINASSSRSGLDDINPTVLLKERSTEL

Compound	normalized shear stress ([1]; 6 weeks post-fracture) [%]	normalized torsional rigidity [1, 7] [%]	normalized maximum shear stress ([1]; 8 weeks post-fracture)	normalized torsional rigidity [1, 8]	normalized peak torque [1, 9]	effect on fracture healing at the dose and treatment regime used [1]	Shear Modulus, mean ([1]; 4 wks) [GPa]	Peak Torque (Tmax), mean ([1]; 4 wks) [Nmm]	Shear Modulus, mean ([1]; 6 wks) [GPa]	Peak Torque (Tmax), mean ([1]; 6 wks) [Nmm]	Shear Modulus, mean ([1]; 8 wks) [GPa]	Peak Torque (Tmax), mean ([1]; 8 wks) [Nmm]	Mal-Union (Stage III), frequency [1]	Non-Union (Stage I/II), frequency [1]	Union (Stage IV), frequency [1]	average radiograph score (union 1 point, mal-union 0.5 points, non-union 0 points) [2]	histology of the healing femur fractures compared to untreated control rat [3]	cartilage in the fracture callus [3]	healing of fractured femurs by histology [3]	estimated plasma half-life [4]	further results
COc1ccc2c(c1)c(CC(=O)O)c(C)n2C(=O)c1ccc(Cl)cc1 [Indomethacin, indomethacin]	15	34	not significantly different	not significantly different	not significantly different	delays, but does not prevent fracture healing	0.3	417	0.4	357	1.8	469	1	1	6	0.54	gross abnormalities	presence of cartilage	appeared to be healing		normalized peak torque ([1]; 6 weeks post-fracture, no drug 77): 46%; bridging of the fracture gap (time post fracture) ([2]; radiography, untreated rats approximately 4-5 weeks): 5-6 weeks
Cc1ccc(-c2cc(C(F)(F)F)nn2-c2ccc(S(N)(=O)=O)cc2)cc1 [Celecoxib, celecoxib]	22	50					0.3	302	0.9	567	1.7	620	3	3	0	0.49				approximately 4 hours	rats tested whose fractured femurs healed as mal-unions rather than non-unions ([1]; rat, in vivo): approximately 50%
CS(=O)(=O)c1ccc(C2=C(c3ccccc3)C(=O)OC2)cc1 [Rofecoxib, rofecoxib]			18%	31%	50%	stops fracture healing	0.2	250	0.3	383	0.5	338	1	4	0	0.32	gross abnormalities	little or no cartilage was evident	no further healing was evident	~5 h	plasma half-life [5]: 10 to 17 h; mechanical properties of the fractured femurs compared to no drug rats ([1]; rofecoxib: 8 weeks post-fracture, all values measured or derived): significantly less; formation of an X-ray dense hard callus ([2]; 2 and 4 week post-fracture radiographs): did not prevent; original fracture on radiograph ([2]; after 8 weeks): still plainly evident; bone resorption at the distal ends of the fracture bones ([3]; rat, in vivo): massive bone resorption event; infection rate as compared to the no drug rats [6]: statistically significant higher; pin slippage, rats having to be euthanized prior to the endpoint ([6]; male, Sprague-Dawley): ≤ 30%; selectivity for COX-2 relative to COX-1 (COX-2): ~35 fold
